In PubChem BioAssay (NCI):
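Abbreviation: GI50, concentration required for 50% inhibition of growth. At the TGI there is no net growth.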

What was measured:
Test in all cases: NCI tumour cell line growth inhibition, 384-well format
DU-145 prostate = system: DU-145 prostate
MDA-MB-231 breast = system: MDA-MB-231 breast
NCI-H322M lung = system: NCI-H322M lung
T-47D breast = system: T-47D breast
SF-539 CNS = system: SF-539 CNS
SR leukemia = system: SR leukemia
SNB-19 CNS = system: SNB-19 CNS
U251 glioblastoma = system: U251 glioblastoma
SK-MEL-2 melanoma = system: SK-MEL-2 melanoma
MDA-MB-468 breast = system: MDA-MB-468 breast
HL-60(TB) leukemia = system: HL-60(TB) leukemia
NCI/ADR-RES ovarian = system: NCI/ADR-RES ovarian
ACHN renal = system: ACHN renal
UACC-257 melanoma = system: UACC-257 melanoma
HT29 colon = system: HT29 colon
MOLT-4 leukemia = system: MOLT-4 leukemia
K-562 leukemia = system: K-562 leukemia
M14 melanoma = system: M14 melanoma
HCT-15 colon = system: HCT-15 colon
RPMI-8226 leukemia = system: RPMI-8226 leukemia
PC-3 prostate = system: PC-3 prostate
HOP-92 NSCLC = system: HOP-92 NSCLC
MDA-MB-435 melanoma = system: MDA-MB-435 melanoma
TK-10 renal = system: TK-10 renal
A549 NSCLC = system: A549 NSCLC
OVCAR-8 ovarian = system: OVCAR-8 ovarian
NCI-H23 lung = system: NCI-H23 lung
RXF 393 renal = system: RXF 393 renal
NCI-H226 lung = system: NCI-H226 lung
SF-268 CNS = system: SF-268 CNS
SW-620 colon = system: SW-620 colon
SN12C renal = system: SN12C renal
786-0 renal = system: 786-0 renal
IGROV1 ovarian = system: IGROV1 ovarian
OVCAR-5 ovarian = system: OVCAR-5 ovarian
OVCAR-3 ovarian = system: OVCAR-3 ovarian
EKVX NSCLC = system: EKVX NSCLC
CAKI-1 renal = system: CAKI-1 renal
HCC-2998 colon = system: HCC-2998 colon
HS 578T breast = system: HS 578T breast
UACC-62 melanoma = system: UACC-62 melanoma
SK-MEL-5 melanoma = system: SK-MEL-5 melanoma
A498 renal = system: A498 renal
OVCAR-4 ovarian = system: OVCAR-4 ovarian
SK-MEL-28 melanoma = system: SK-MEL-28 melanoma
SNB-75 CNS = system: SNB-75 CNS
MCF7 breast = system: MCF7 breast

O=C(c1cc(Cc2n[nH]c(=O)c3ccccc23)ccc1F)N1CCN(C(=O)C2CC2)CC1
GI50 (DU-145 prostate): 53.5 µM
TGI (DU-145 prostate): > 100 µM
GI50 (MDA-MB-231 breast): > 61.1 µM
TGI (MDA-MB-231 breast): > 100 µM
GI50 (NCI-H322M lung): > 100 µM
TGI (NCI-H322M lung): > 100 µM
GI50 (T-47D breast): 34.8 µM
TGI (T-47D breast): > 100 µM
GI50 (SF-539 CNS): 11.8 µM
TGI (SF-539 CNS): > 100 µM
GI50 (SR leukemia): 1.37 µM
TGI (SR leukemia): 3.38 µM
GI50 (SNB-19 CNS): 99.2 µM
TGI (SNB-19 CNS): > 100 µM
GI50 (U251 glioblastoma): 27.3 µM
TGI (U251 glioblastoma): > 100 µM
GI50 (SK-MEL-2 melanoma): > 100 µM
TGI (SK-MEL-2 melanoma): > 100 µM
GI50 (MDA-MB-468 breast): 3.76 µM
TGI (MDA-MB-468 breast): 16.7 µM
GI50 (HL-60(TB) leukemia): 21.2 µM
TGI (HL-60(TB) leukemia): > 100 µM
GI50 (NCI/ADR-RES ovarian): > 100 µM
TGI (NCI/ADR-RES ovarian): > 100 µM
GI50 (ACHN renal): > 81.8 µM
TGI (ACHN renal): > 100 µM
GI50 (UACC-257 melanoma): > 100 µM
TGI (UACC-257 melanoma): > 100 µM
GI50 (HT29 colon): > 100 µM
TGI (HT29 colon): > 100 µM
GI50 (MOLT-4 leukemia): 1.43 µM
TGI (MOLT-4 leukemia): 3.03 µM
GI50 (K-562 leukemia): 33.5 µM
TGI (K-562 leukemia): > 100 µM
GI50 (M14 melanoma): > 91.5 µM
TGI (M14 melanoma): > 100 µM
GI50 (HCT-15 colon): > 100 µM
TGI (HCT-15 colon): > 100 µM
GI50 (RPMI-8226 leukemia): 12.7 µM
TGI (RPMI-8226 leukemia): > 100 µM
GI50 (PC-3 prostate): > 100 µM
TGI (PC-3 prostate): > 100 µM
GI50 (HOP-92 NSCLC): 57.3 µM
TGI (HOP-92 NSCLC): > 100 µM
GI50 (MDA-MB-435 melanoma): > 100 µM
TGI (MDA-MB-435 melanoma): > 100 µM
GI50 (TK-10 renal): > 100 µM
TGI (TK-10 renal): > 100 µM
GI50 (A549 NSCLC): 44.9 µM
TGI (A549 NSCLC): > 100 µM
GI50 (OVCAR-8 ovarian): 22 µM
TGI (OVCAR-8 ovarian): > 100 µM
GI50 (NCI-H23 lung): 16.3 µM
TGI (NCI-H23 lung): > 100 µM
GI50 (RXF 393 renal): > 37.6 µM
TGI (RXF 393 renal): > 79.6 µM
GI50 (NCI-H226 lung): 34.5 µM
TGI (NCI-H226 lung): > 100 µM
GI50 (SF-268 CNS): 24.9 µM
TGI (SF-268 CNS): > 90.3 µM
GI50 (SW-620 colon): > 35 µM
TGI (SW-620 colon): > 100 µM
GI50 (SN12C renal): > 100 µM
TGI (SN12C renal): > 100 µM
GI50 ([…]-0 renal): > 100 µM
TGI (786-0 renal): > 100 µM
GI50 (IGROV1 ovarian): > 62.7 µM
TGI (IGROV1 ovarian): > 100 µM
GI50 (OVCAR-5 ovarian): > 100 µM
TGI (OVCAR-5 ovarian): > 100 µM
GI50 (OVCAR-3 ovarian): 60.5 µM
TGI (OVCAR-3 ovarian): > 100 µM
GI50 (EKVX NSCLC): 97.7 µM
TGI (EKVX NSCLC): > 100 µM
GI50 (CAKI-1 renal): 52.4 µM
TGI (CAKI-1 renal): > 100 µM
GI50 (HCC-2998 colon): > 29.2 µM
TGI (HCC-2998 colon): > 100 µM
GI50 (HS 578T breast): 25.9 µM
TGI (HS 578T breast): > 100 µM
GI50 (UACC-62 melanoma): > 95.7 µM
TGI (UACC-62 melanoma): > 100 µM
GI50 (SK-MEL-5 melanoma): 35 µM
TGI (SK-MEL-5 melanoma): > 73.1 µM
GI50 (A498 renal): > 100 µM
TGI (A498 renal): > 100 µM
GI50 (OVCAR-4 ovarian): > 80.3 µM
TGI (OVCAR-4 ovarian): > 100 µM
GI50 (SK-MEL-28 melanoma): > 100 µM
TGI (SK-MEL-28 melanoma): > 100 µM
GI50 (SNB-75 CNS): 22.5 µM
TGI (SNB-75 CNS): > 95.9 µM
GI50 (MCF7 breast): 28.6 µM
TGI (MCF7 breast): > 100 µM
